From patent US20200164034A1, “METHODS FOR IMPROVING SEX-DIMORPHIC RESPONSES TO TARGETED THERAPY IN MELANOMA” (Board of Regents, The University of Texas System, priority 2018, published 2020)

Key:
Type in all cases: cell-based, human
[1] = tested on: BRAFV600E melanoma cell lines; test: Hormonal co-treatment in vitro: proliferative response to DT; settings: cell culture, co-treatment with dabrafenib 1 μM and trametinib 100 nM
[2] = tested on: BRAFV600E melanoma cell lines; test: Hormonal co-treatment in vitro: apoptosis response to DT; settings: cell culture, co-treatment with dabrafenib 1 μM and trametinib 100 nM, 72 hours
Method: (§1) In parallel, hormonal perturbations were evaluated in vitro using a panel of BRAFV600E melanoma cell lines derived from melanoma patients of the institution.
(§2) Melanoma cell lines derived from tumors of patients treated at UT MD Anderson Cancer Center under the TIL program were obtained from Dr. Chantale Bernatchez and Dr. Scott Woodman. For these studies, n=5 male (2373, 2400, 2650, 2800 and 624-mel) and n=5 female (2153, 2333, 2379, 2508, 2510) lines were selected based on carriage of BRAF^V600E/K mutations and avoidance of prior exposure in vivo to MAPK blockade therapies. Cells were maintained in phenol red-free RPMI-1640 supplemented with 10% heat-inactivated FBS, 1% GlutaMAX and 1% Pencillin/Streptomycin (all Gibco). LNCaP, MCF7 and PC3 cell lines were obtained from institutional stocks and maintained in RPMI-1640 supplemented as above (LNCaP, MCF7) or DMEM/F12 supplemented as above (PC3). […]
Cells were plated into 6-well plates at 250,000 cells/well in full growth media and allowed to adhere overnight prior to drug treatment as shown in results in reduced-serum medium (5% FBS, phenol red-free RPMI-1640). […] Data acquisition by flow cytometry was performed within 2 hours of cell harvest and analyzed in FlowJo after gating on cell size, singlets, and applying Curly Quadrant gates to PI vs YO-PRO-1 fluorescence.

[3] = tested on: BRAFV600E melanoma cell lines; test: Hormonal co-treatment in vitro: cell cycle response to DT; settings: cell culture, co-treatment with dabrafenib 1 μM and trametinib 100 nM
Method: as §1
as §2, with “(PC3). All cell lines were confirmed mycoplasma negative using the Lonza MycoALERT kit prior to use, and authenticated by STR profiling via the MD Anderson Characterized Cell Line Core.” for “(PC3).”

CNC(=O)c1ccc(N2C(=S)N(c3ccc(C#N)c(C(F)(F)F)c3)C(=O)C2(C)C)cc1F [enzalutamide]
no significant effects: effect on proliferative response to DT treatment [1] | effect on apoptosis response to DT treatment [2] | effect on cell cycle response to DT treatment [3]

C[C@]12CC[C@H]3[C@@H](CCC4=CC(=O)CC[C@@]43C)[C@@H]1CC[C@@H]2O [testosterone]
no significant effects: effect on proliferative response to DT treatment [1] | effect on apoptosis response to DT treatment [2] | effect on cell cycle response to DT treatment [3]
